Results taken from patent US20180333538A1, “INJECTION APPARATUS” (Daicel Corporation, priority 2015, published 2018).
Read-outs that look alike come from different tables or passages of the source.

Test system: intradermal layer which is skin tissue of the rabbit in vivo
Settings: 100 μl intradermal
Method: Moreover, an object of the following experimental conditions is to confirm, when an inflammatory substance is injected to the intradermal layer which is skin tissue of the rabbit in vivo, a presence or absence of an inflammatory response (formation of erythema and eschar, and formation of edema) for each elapsed time (after 24 hours, 48 hours, and 72 hours) . In addition, the injection of an injection solution with the needled injector was performed at a constant pressurization rate.
16-week-old male Std: JW/CSK rabbit, already shaved and smooth skin-verified, was used.
An aqueous solution of the following inflammatory substance was used as the dosing liquid and the injection solution.
Inflammatory substance: acetic acid, diluted to a predetermined concentration with distilled water, dose 100 μl
Definitions of numerical values representing the experimental results in the tables with respect to each of erythema and eschar formation and edema formation are as follows.
1 Very slight erythema (barely perceptible erythema)
2 Slight erythema (clearly perceptible erythema)
3 Moderate to severe erythema
4 Severe erythema to eschar formations
1 Very slight edema (barely perceptible edema)
2 Slight edema (edema with edges perceptible due to definite raising)
3 Moderate edema (raised approximately 1 mm)
4 Severe edema (raised 1 mm or more and extending beyond the area of exposure)

[1] = Comparative example (needled injector), acetic acid 0.25%, 24 h
[2] = Comparative example (needled injector), acetic acid 0.25%, 48 h
[3] = Comparative example (needled injector), acetic acid 0.25%, 72 h
[4] = Comparative example (needled injector), acetic acid 0.5%, 24 h
[5] = Comparative example (needled injector), acetic acid 0.5%, 48 h
[6] = Comparative example (needled injector), acetic acid 0.5%, 72 h
[7] = Comparative example (needled injector), acetic acid 1.0%, 24 h
[8] = Comparative example (needled injector), acetic acid 1.0%, 48 h
[9] = Comparative example (needled injector), acetic acid 1.0%, 72 h
[10] = Comparative example (needled injector), acetic acid 1.5%, 24 h
[11] = Comparative example (needled injector), acetic acid 1.5%, 48 h
[12] = Comparative example (needled injector), acetic acid 1.5%, 72 h
[13] = Comparative example (needled injector), acetic acid 2.0%, 24 h
[14] = Comparative example (needled injector), acetic acid 2.0%, 48 h
[15] = Comparative example (needled injector), acetic acid 2.0%, 72 h
[16] = Injector 1, acetic acid 0.25%, 24 h
[17] = Injector 1, acetic acid 0.25%, 48 h
[18] = Injector 1, acetic acid 0.25%, 72 h
[19] = Injector 1, acetic acid 0.5%, 24 h
[20] = Injector 1, acetic acid 0.5%, 48 h
[21] = Injector 1, acetic acid 0.5%, 72 h
[22] = Injector 1, acetic acid 1.0%, 24 h
[23] = Injector 1, acetic acid 1.0%, 48 h
[24] = Injector 1, acetic acid 1.0%, 72 h
[25] = Injector 1, acetic acid 1.5%, 24 h
[26] = Injector 1, acetic acid 1.5%, 48 h
[27] = Injector 1, acetic acid 1.5%, 72 h
[28] = Injector 1, acetic acid 2.0%, 24 h
[29] = Injector 1, acetic acid 2.0%, 48 h
[30] = Injector 1, acetic acid 2.0%, 72 h

- Edema [1]: 0
- Erythema etc. [1]: 1
- Edema [2]: 0
- Erythema etc. [2]: 1
- Edema [3]: 0
- Erythema etc. [3]: 1
- Edema [4]: 0
- Erythema etc. [4]: 1
- Edema [5]: 0
- Erythema etc. [5]: 1
- Edema [6]: 0
- Erythema etc. [6]: 1
- Edema [7]: 1
- Erythema etc. [7]: 1
- Edema [8]: 1
- Erythema etc. [8]: 1
- Edema [9]: 1
- Erythema etc. [9]: 1
- Edema [10]: 2
- Erythema etc. [10]: 1
- Edema [11]: 2
- Erythema etc. [11]: 1
- Edema [12]: 2
- Erythema etc. [12]: 1
- Edema [13]: 3
- Erythema etc. [13]: 1
- Edema [14]: 3
- Erythema etc. [14]: 1
- Edema [15]: 2
- Erythema etc. [15]: 1
- Edema [16]: 0
- Erythema etc. [16]: 1
- Edema [17]: 0
- Erythema etc. [17]: 1
- Edema [18]: 0
- Erythema etc. [18]: 1
- Edema [19]: 0
- Erythema etc. [19]: 1
- Edema [20]: 0
- Erythema etc. [20]: 1
- Edema [21]: 0
- Erythema etc. [21]: 1
- Edema [22]: 0
- Erythema etc. [22]: 1
- Edema [23]: 0
- Erythema etc. [23]: 1
- Edema [24]: 0
- Erythema etc. [24]: 1
- Edema [25]: 0
- Erythema etc. [25]: 1
- Edema [26]: 0
- Erythema etc. [26]: 1
- Edema [27]: 0
- Erythema etc. [27]: 1
- Edema [28]: 1
- Erythema etc. [28]: 1
- Edema [29]: 1
- Erythema etc. [29]: 1
- Edema [30]: 1
- Erythema etc. [30]: 1
Compound: CC(=O)O [Acetic acid, acetic acid]
